Data taken from US10538497B2, “Compounds as indoleamine 2,3-dioxygenase inhibitors” (Merck Sharp & Dohme Corp., priority 2015, dated 2020).

Columns and labels:
IDO1 [1] = biological target: T1, IDO1 (Homo sapiens (Human), UniProt P14902); test: IDO1 Enzyme Assay; settings: HIS-tagged recombinant IDO1, 40 nM
IDO1 [2] = biological target: T1, IDO1; test: IDO1 Cellular Assay in Frozen HEK293 Cells Transiently Transfected with Human IDO1; format: cell-based; settings: HEK293 cells transiently transfected with human IDO1; read-out: IDO1 HEK293 Cell Assay, IC50
IDO1 [3] = biological target: T1, IDO1; test: IDO1 Cellular Assay in Hela Cells Stimulated with IFNγ; format: cell-based; settings: Hela cells stimulated with IFNγ 100 ng/mL; read-out: IDO1 HELA Cell Assay, IC50
[4] = read-out: IDO1 Enzyme Assay, IC50

T1 sequence (P14902 whole entry): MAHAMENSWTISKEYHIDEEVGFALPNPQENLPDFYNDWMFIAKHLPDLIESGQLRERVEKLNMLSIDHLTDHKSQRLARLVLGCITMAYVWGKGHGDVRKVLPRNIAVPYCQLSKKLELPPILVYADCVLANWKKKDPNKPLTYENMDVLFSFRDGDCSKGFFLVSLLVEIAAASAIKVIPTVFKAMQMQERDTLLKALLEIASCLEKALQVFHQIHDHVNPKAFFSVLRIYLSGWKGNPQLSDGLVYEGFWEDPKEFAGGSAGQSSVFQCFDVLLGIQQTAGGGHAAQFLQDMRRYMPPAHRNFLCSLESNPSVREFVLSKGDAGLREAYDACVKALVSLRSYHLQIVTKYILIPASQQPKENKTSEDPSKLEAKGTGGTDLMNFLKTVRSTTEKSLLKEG

SMILES | IC50 (IDO1 [1]; [4]) | IC50 (IDO1 [2]) | IC50 (IDO1 [3]) | IC50 (IDO1 [1]; IDO1 Enzyme Assay, IC50, nM)
CC(C)Nc1c(NCCSc2nonc2/C(=N/O)Nc2ccc(F)c(Br)c2)c(=O)c1=O [Example 94, N-(3-bromo-4-fluorophenyl)-N′-hydroxy-4-{[2-({2-[(1-methylethyl)amino]-3,4-dioxocyclobut-1-en-1-yl}amino)ethyl]sulfanyl}-1,2,5-oxadiazole-3-carboximidamide] | 26.8 nM | 193 nM | 73 nM | –
COC(=O)[C@@H](N)CSc1nonc1/C(=N/O)Nc1ccc(F)c(Br)c1 [Example 48, methyl S-{4-[N-(3-bromo-4-fluorophenyl)-N′-hydroxycarbamimidoyl]-1,2,5-oxadiazol-3-yl}-L-cisteinate] | 170 nM | 226 nM | 648 nM | –
CC(C)C(O)CCSc1nonc1/C(=N/O)Nc1ccc(F)c(Br)c1 (stereo not drawn) [Example 54, N-(3-bromo-4-fluorophenyl)-N′-hydroxy-4-[(3-hydroxy-4-methylpentyl)sulfanyl]-1,2,5-oxadiazole-3-carboximidamide] | 330 nM | 204 nM | 200 nM | –
CC(C)OC(=O)OCOP(=O)(O)CCSc1nonc1/C(=N/O)Nc1ccc(F)c(Br)c1 [Example 9, (Z)-(((2-((4-(N-(3-bromo-4-fluorophenyl)-N′-hydroxycarbamimidoyl)-1,2,5-oxadiazol-3-yl)thio)ethyl)(hydroxy)phosphoryl)oxy)methyl isopropyl carbonate] | 197 nM | 5120 nM | 5060 nM | –
CCOC(=O)NC(=O)NCCSc1nonc1C(=NO)Nc1ccc(F)c(Br)c1 [Example 128, ethyl {[2-({4-[N-(3-bromo-4-fluorophenyl)-N′-hydroxycarbamimidoyl]-1,2,5-oxadiazol-3-yl}sulfanyl)ethyl]carbamoyl} carbamate] | 110 nM | 149 nM | 169 nM | –
NCCSc1nonc1/C(=N/O)Nc1ccc(F)c(Br)c1 [Example 2, (Z)-2-((4-(N-(3-Bromo-4-fluorophenyl)-N′-hydroxycarbamimidoyl)-1,2,5-oxadiazol-3-yl)thio)ethan-1-aminium chloride] | 48.1 nM | 216 nM | 77.5 nM | –
O=C(NCCSc1nonc1C(=NO)Nc1ccc(F)c(Br)c1)NCC1CCOCC1 [Example 130, N-(3-bromo-4-fluorophenyl)-N′-hydroxy-4-[(2-{[(tetrahydro-2H-pyran-4-ylmethyl)carbamoyl]amino}ethyl)sulfanyl]-1,2,5-oxadiaxole-3-carboximidamide] | 37 nM | 206 nM | 371 nM | –
N=C(N)NCCSc1nonc1/C(=N/O)Nc1ccc(F)c(Br)c1 [Example 56, N-(3-bromo-4-fluorophenvl)-4-[(2-carbamimidamidoethyl)sulfanyl]-N′-hydroxy-1,2,5-oxadiazole-3-carboximidamide] | 41.5 nM | 212 nM | 94.3 nM | –
O=C(CSc1nonc1/C(=N/O)Nc1ccc(F)c(Br)c1)N[C@H]1C[C@@H](O)[C@@H](O)C1 [Example 177, 2-({4-[N-(3-bromo-4-fluorophenyl)-N′-hydroxycarbamimidoyl]-1,2.5-oxadiazol-3-yl}sulfanyl)-N-[(1r,3R,4S)-3,4-dihydroxycyclopentyl]acetamide] | 97.3 nM | 411 nM | 469 nM | –
CN1C(=O)NC[C@@H]1CSc1nonc1/C(=N/O)Nc1ccc(F)c(C#N)c1 [Example 150, N-(3-cyano-4-fluorophenyl)-N′-hydroxy-4-({[(4R)-3-methyl-2-oxoimidazolidin-4-yl]methyl}sulfanyl)-1,2,5-oxadiazole-3-carboximidamide] | 173 nM | 422 nM | 820 nM | –
CC#CCSc1nonc1C(=NO)Nc1ccc(F)c(Br)c1 [Example 161, N-(3-bromo-4-fluorophenyl)-4-(but-2-yn-1-ylsulfanyl)-N′-hydroxy-1,2,5-oxadiazole-3-carboximidamide] | – | 188 nM | 341 nM | 169 nM
OC[C@H](O)CSc1nonc1/C(=N/O)Nc1ccc(F)c(Cl)c1 [Example 170, N-(3-chloro-4-fluorophenyl)-4-{[(2S)-2,3-dihydroxypropyl]sulfanyl}-N′-hydroxy-1,2,5-oxadiazole-3-carboximidamide] | 68.4 nM | 132 nM | 110 nM | –

Now those with a lower IC50 (IDO1 [2]), led by results:

IC50 (IDO1 [1]; [4]) | IC50 (IDO1 [2]) | IC50 (IDO1 [3]) | IC50 (IDO1 [1]; IDO1 Enzyme Assay, IC50, nM) | SMILES
– | 79.3 nM | 156 nM | 96.3 nM | Cc1nccn1CCSc1nonc1C(=NO)Nc1ccc(F)c(Br)c1 [Example 151, N-(3-bromo-4-fluorophenyl)-N′-hydroxy-4-{[2-(2-methyl-1H-imidazol-1-yl)ethyl]sulfanyl}-1,2,5-oxadiazole-3-carboximidamide]
– | 53.2 nM | 37.5 nM | 46.1 nM | OCC(O)CSc1nonc1/C(=N/O)Nc1ccc(F)c(Br)c1 (single isomer, unassigned) [Example 63, N-(3-bromo-4-fluorophenyl)-4-[(2,3-dihydroxypropyl)sulfanyl]-N′-hydroxy-1,2,5-oxadiazole-3-carboximidamide]
39.3 nM | 35.7 nM | 16.9 nM | – | N#C/N=C(\N)NCCSc1nonc1/C(=N/O)Nc1ccc(F)c(Br)c1 [Example 85, N-(3-bromo-4-fluorophenyl)-4-{[2-(N″- cyanocarbamimidamido)ethyl]sulfanyl}-N′-hydroxy-1,2,5-oxadiazole-3-carboximidamide]
82.7 nM | 113 nM | 63.6 nM | – | CC(CO)(CO)NC(=O)CSc1nonc1/C(=N/O)Nc1ccc(F)c(Br)c1 [Example 174, 2-({4-[N-(3-bromo-4-fluorophenyl)-N′-hydroxycarbamimidoyl]-1,2,5-oxadiazol-3-yl}sulfanyl)-N-[2-hydroxy-1-(hydroxymethyl)-1-methylethyl]acetamide]
– | 66.7 nM | 167 nM | 34.1 nM | O=C(NCCSc1nonc1C(=NO)Nc1ccc(F)c(Br)c1)NCc1ccco1 [Example 131, N-(3-bromo-4-fluorophenyl)-4-[(2-{[(furan-2-ylmethyl)carbamoyl]amino}ethyl)sulfanyl]-N′-hydroxy-1,2,5-oxadiazole-3-carboximidamide]
– | 47.5 nM | 43.4 nM | 78.6 nM | ON=C(Nc1ccc(F)c(Br)c1)c1nonc1SCCn1ccnc1 [Example 172, N-(3-bromo-4-fluorophenyl)-N′-hydroxy-4-{[2-(1H-imidazol-1-yl)ethyl]sulfanyl}-1,2,5-oxadiazole-3-carboximidamide]
50.9 nM | 16.1 nM | 47.4 nM | – | CS(=O)(=O)NCCSc1nonc1/C(=N/O)Nc1ccc(F)c(Cl)c1 [Example 184, N-(3-chloro-4-fluorophenyl)-N′-hydroxy-4-({2-[(methylsulfonyl)amino]ethyl}sulfanyl)-1,2,5-oxadiazole-3-carboximidamide]
90.9 nM | 101 nM | 57.7 nM | – | CN1CCOC(CSc2nonc2/C(=N/O)Nc2ccc(F)c(Br)c2)C1 (stereo not drawn) [Example 78, N-(3-bromo-4-fluorophenyl)-N′-hydroxy-4-{[(4-methylmorpholin-2-yl)methyl]sulfanyl}-1,2,5-oxadiazole-3-carboximidamide]
28.3 nM | 67.7 nM | 92.3 nM | – | O/N=C(\Nc1ccc(F)c(Br)c1)c1nonc1SC1CCNC1 (stereo not drawn) [Example 66, N-(3-bromo-4-fluorophenyl)-N′-hydroxy-4-(pyrrolidin-3-ylsulfanyl)-1,2,5-oxadiazole-3-carboximidamide]
